One experiment deals with HK_4262 (Myxococcus xanthus, UniProt Q1D4I6). As to conditions: excess ATP; kinase buffer pH 8.0, 10 mM MgCl2; labelled compound.
For a further experiment, the target named is HK_1190 (Myxococcus xanthus, UniProt Q1DD24). The conditions noted are these: excess ATP; kinase buffer pH 8.0, 10 mM MgCl2; labelled compound.
HK_1190, sequence (Q1DD24 205-424): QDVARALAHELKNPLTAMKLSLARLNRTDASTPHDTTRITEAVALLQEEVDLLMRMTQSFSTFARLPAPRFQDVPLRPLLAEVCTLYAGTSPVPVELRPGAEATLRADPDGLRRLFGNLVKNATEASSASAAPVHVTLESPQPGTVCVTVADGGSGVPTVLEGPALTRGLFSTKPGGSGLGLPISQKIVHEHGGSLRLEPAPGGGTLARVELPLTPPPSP

HK_4262, sequence (Q1D4I6 477-702): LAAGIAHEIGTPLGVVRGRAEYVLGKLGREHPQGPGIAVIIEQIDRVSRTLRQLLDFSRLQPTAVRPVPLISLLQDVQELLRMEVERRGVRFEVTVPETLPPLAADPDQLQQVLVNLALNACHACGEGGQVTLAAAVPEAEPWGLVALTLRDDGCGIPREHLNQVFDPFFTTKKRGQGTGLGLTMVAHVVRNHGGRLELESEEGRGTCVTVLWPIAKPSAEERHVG

For `Nc1ncnc2c1ncn2[C@@H]1O[C@H](COP(=O)(O)OP(=O)(O)OP(=O)(O)O)[C@@H](O)[C@H]1O` [ATP], the “autophosphorylation, radiolabel gel assay” value at HK_4262 and on HK_1190 was “Both kinases were capable of autophosphorylation” in each case.
